# Experimental data published in patent US10172358B2, “Thiopicolinamide compounds with fungicidal activity” (Dow AgroSciences LLC, priority 2016, dated 2019).
# Read-outs that look alike come from different tables or passages of the source.
# Experiments:
# Zymoseptoria tritici = experiment: Fungicidal activity: leaf blotch of wheat (SEPTTR), disease control on wheat seedlings; type: in vivo, Zymoseptoria tritici on wheat plants (variety Yuma); conditions: low volume application, 121.5 g/H
# Description: Evaluation of Fungicidal Activity: Leaf Blotch of Wheat (Zymoseptoria Tritici; Bayer Code […]) Technical grades of materials were dissolved in acetone, which were then mixed with nine volumes of water (H2O) containing 110 ppm Triton X-100. The fungicide solutions were applied onto wheat seedlings using an automated booth sprayer to run-off. All sprayed plants were allowed to air dry prior to further handling. All fungicides were evaluated using the aforementioned method for their activity vs. all target diseases, unless stated otherwise. Wheat leaf blotch and brown rust activity were also evaluated using track spray applications, in which case the fungicides were formulated as EC formulations, containing 0.1% Trycol 5941 in the spray solutions. Wheat plants (variety Yuma) were grown from seed in a greenhouse in 50% mineral soil/50% soil-less Metro mix until the first leaf was fully emerged, with 7-10 seedlings per pot. These plants were inoculated with an aqueous spore suspension of Zymoseptoria tritici either prior to or after fungicide treatments. After inoculation the plants were kept in 100% relative humidity (one day in a dark dew chamber followed by two to three days in a lighted dew chamber at 20° C.) to permit spores to germinate and infect the leaf. The plants were then transferred to a greenhouse set at 20° C. for disease to develop. When disease symptoms were fully expressed on the 1st leaves of untreated plants, infection levels were assessed on a scale of 0 to 100 percent disease severity. Percent disease control was calculated using the ratio of disease severity on treated plants relative to untreated plants.
# Puccinia triticina = experiment: Fungicidal activity: wheat brown rust (PUCCRT), disease control on wheat seedlings; type: in vivo, Puccinia triticina on wheat plants (variety Yuma); conditions: low volume application, 121.5 g/H
# Description: Technical grades of materials were dissolved in acetone, which were then mixed with nine volumes of water (H2O) containing 110 ppm Triton X-100. The fungicide solutions were applied onto wheat seedlings using an automated booth sprayer to run-off. All sprayed plants were allowed to air dry prior to further handling. All fungicides were evaluated using the aforementioned method for their activity vs. all target diseases, unless stated otherwise. Wheat leaf blotch and brown rust activity were also evaluated using track spray applications, in which case the fungicides were formulated as EC formulations, containing 0.1% Trycol 5941 in the spray solutions. Evaluation of Fungicidal Activity: Wheat Brown Rust (Puccinia triticina; Synonym: Puccinia recondita f. Sp. Tritici; Bayer Code PUCCRT) Wheat plants (variety Yuma) were grown from seed in a greenhouse in 50% mineral soil/50% soil-less Metro mix until the first leaf was fully emerged, with 7-10 seedlings per pot. These plants were inoculated with an aqueous spore suspension of Puccinia triticina either prior to or after fungicide treatments. After inoculation the plants were kept in a dark dew room at 22° C. with 100% relative humidity overnight to permit spores to germinate and infect the leaf. The plants were then transferred to a greenhouse set at 24° C. for disease to develop. Fungicide formulation, application and disease assessment followed the procedures as described in the Example A. The results of the evalution are shown below in Table 4.
# Phakopsora pachyrhizi = experiment: Fungicidal activity: Asian soybean rust (PHAKPA), disease control on soybean seedlings; type: in vivo
# Description: Evaluation of Fungicidal Activity: Asian Soybean Rust (Phakopsora Pachyrhizi; Bayer Code PHAKPA)
# Technical grades of materials were dissolved in acetone, which were then mixed with nine volumes of H2O containing 0.011% Tween 20. The fungicide solutions were applied onto soybean seedlings using an automated booth sprayer to run-off. All sprayed plants were allowed to air dry prior to further handling.
# Soybean plants (variety Williams 82) were grown in soil-less Metro mix, with one plant per pot. Two weeks old seedlings were used for testing. Plants were inoculated either 3 days prior to or 1 day after fungicide treatments. Plants were incubated for 24 h in a dark dew room at 22° C. and 100% relative humidity then transferred to a growth room at 23° C. for disease to develop. Disease severity was assessed on the sprayed leaves.
# [1] = 24 h, 1 day protectant, read-out: SEPTTR 1DP disease control, LV activity at 121.5 g/H
# [2] = 24 h, 1 day protectant, read-out: PUCCRT 1DP disease control, LV activity at 121.5 g/H
# [3] = 72 h, 3 day curative, read-out: PUCCRT 3DC disease control, LV activity at 121.5 g/H
# [4] = 72 h, 3 day curative, read-out: SEPTTR 3DC disease control, LV activity at 121.5 g/H
# [5] = 24 h, 1 day protectant, read-out: PHAKPA 1DP disease control at 25 ppm
# [6] = 72 h, 3 day curative, read-out: PHAKPA 3DC disease control at 25 ppm
structure (smiles),measurement,setting,value
COc1ccnc(C(=S)N[C@H](C)C(=O)O[C@@H](C)C(c2ccc(F)cc2)c2ccc(F)cc2)c1OC(C)=O [Compound 59],pest or weed control at 121.5 g/ha,Zymoseptoria tritici; [1],> 80%
same,pest or weed control at 121.5 g/ha,Puccinia triticina; [2],≤ 80%
same,pest or weed control at 121.5 g/ha,Puccinia triticina; [3],≤ 80%
C=CC[C@@H](Oc1ccccc1)[C@H](C)OC(=O)[C@H](C)NC(=S)c1nccc(OC)c1OC(C)=O [Compound 60],pest or weed control at 121.5 g/ha,Zymoseptoria tritici; [1],≤ 80%
same,pest or weed control at 121.5 g/ha,Zymoseptoria tritici; [4],≤ 80%
same,pest or weed control at 121.5 g/ha,Puccinia triticina; [2],> 80%
same,pest or weed control at 121.5 g/ha,Puccinia triticina; [3],> 80%
COc1ccnc(C(=S)N[C@@H](C)C(=O)O[C@H](C(C)C)[C@H](C)Oc2ccccc2)c1OC(C)=O [Compound 61],pest or weed control at 121.5 g/ha,Zymoseptoria tritici; [1],≤ 80%
same,pest or weed control at 121.5 g/ha,Zymoseptoria tritici; [4],> 80%
same,pest or weed control at 121.5 g/ha,Puccinia triticina; [2],> 80%
same,pest or weed control at 121.5 g/ha,Puccinia triticina; [3],> 80%
same,pest or weed control at 25 ppm,Phakopsora pachyrhizi; [5],> 80%
same,pest or weed control at 25 ppm,Phakopsora pachyrhizi; [6],> 80%
CCC[C@@H](Oc1ccc(C)cc1)[C@H](C)OC(=O)[C@H](C)NC(=S)c1nccc(OC)c1OC(C)=O [Compound 62],pest or weed control at 121.5 g/ha,Zymoseptoria tritici; [1],≤ 80%
same,pest or weed control at 121.5 g/ha,Puccinia triticina; [2],> 80%
same,pest or weed control at 121.5 g/ha,Puccinia triticina; [3],> 80%
same,pest or weed control at 25 ppm,Phakopsora pachyrhizi; [5],≤ 80%
same,pest or weed control at 25 ppm,Phakopsora pachyrhizi; [6],≤ 80%
COc1ccnc(C(=S)N[C@@H](C)C(=O)O[C@@H](C)C(c2ccc(F)cc2F)c2ccc(F)cc2F)c1OC(C)=O [Compound 63],pest or weed control at 121.5 g/ha,Zymoseptoria tritici; [1],> 80%
same,pest or weed control at 121.5 g/ha,Zymoseptoria tritici; [4],> 80%
same,pest or weed control at 121.5 g/ha,Puccinia triticina; [2],> 80%
same,pest or weed control at 121.5 g/ha,Puccinia triticina; [3],≤ 80%
same,pest or weed control at 25 ppm,Phakopsora pachyrhizi; [5],> 80%
same,pest or weed control at 25 ppm,Phakopsora pachyrhizi; [6],≤ 80%
COc1ccnc(C(=S)N[C@@H](C)C(=O)O[C@@H](C)[C@@H](c2ccc(F)cc2)c2ccc(F)cc2C)c1OC(C)=O [Compound 64],pest or weed control at 121.5 g/ha,Zymoseptoria tritici; [1],> 80%
same,pest or weed control at 121.5 g/ha,Zymoseptoria tritici; [4],> 80%
same,pest or weed control at 121.5 g/ha,Puccinia triticina; [2],> 80%
same,pest or weed control at 121.5 g/ha,Puccinia triticina; [3],≤ 80%
same,pest or weed control at 25 ppm,Phakopsora pachyrhizi; [5],> 80%
same,pest or weed control at 25 ppm,Phakopsora pachyrhizi; [6],> 80%
COc1cc(C)ccc1C(c1ccc(C)cc1OC)[C@H](C)OC(=O)[C@H](C)NC(=S)c1nccc(OC)c1OC(C)=O [Compound 65],pest or weed control at 121.5 g/ha,Zymoseptoria tritici; [1],> 80%
same,pest or weed control at 121.5 g/ha,Zymoseptoria tritici; [4],> 80%
same,pest or weed control at 121.5 g/ha,Puccinia triticina; [2],> 80%
same,pest or weed control at 121.5 g/ha,Puccinia triticina; [3],> 80%
same,pest or weed control at 25 ppm,Phakopsora pachyrhizi; [5],> 80%
same,pest or weed control at 25 ppm,Phakopsora pachyrhizi; [6],≤ 80%
CC[C@H](OC(=O)[C@H](C)NC(=S)c1nccc(OC)c1OC(C)=O)[C@@H](C)Oc1ccccc1 [Compound 66],pest or weed control at 121.5 g/ha,Puccinia triticina; [2],≤ 80%
same,pest or weed control at 121.5 g/ha,Puccinia triticina; [3],≤ 80%
same,pest or weed control at 25 ppm,Phakopsora pachyrhizi; [5],≤ 80%
same,pest or weed control at 25 ppm,Phakopsora pachyrhizi; [6],≤ 80%
COc1cc(F)ccc1C(c1ccc(F)cc1OC)[C@H](C)OC(=O)[C@H](C)NC(=S)c1nccc(OC)c1OC(C)=O [Compound 67],pest or weed control at 121.5 g/ha,Zymoseptoria tritici; [1],> 80%
same,pest or weed control at 121.5 g/ha,Zymoseptoria tritici; [4],> 80%
same,pest or weed control at 121.5 g/ha,Puccinia triticina; [2],> 80%
same,pest or weed control at 121.5 g/ha,Puccinia triticina; [3],≤ 80%
same,pest or weed control at 25 ppm,Phakopsora pachyrhizi; [5],> 80%
same,pest or weed control at 25 ppm,Phakopsora pachyrhizi; [6],≤ 80%
COc1ccnc(C(=S)N[C@H](C)C(=O)O[C@H](C)C(c2ccc(F)cc2)c2ccc(F)cc2)c1OC(C)=O [Compound 68],pest or weed control at 121.5 g/ha,Zymoseptoria tritici; [1],≤ 80%
same,pest or weed control at 121.5 g/ha,Puccinia triticina; [3],≤ 80%
same,pest or weed control at 25 ppm,Phakopsora pachyrhizi; [5],≤ 80%
COc1ccnc(C(=S)N[C@@H](C)C(=O)O[C@@H](C(C)C)[C@@H](C)Oc2ccccc2)c1OC(C)=O [Compound 69],pest or weed control at 121.5 g/ha,Zymoseptoria tritici; [4],≤ 80%
same,pest or weed control at 121.5 g/ha,Puccinia triticina; [2],≤ 80%
same,pest or weed control at 121.5 g/ha,Puccinia triticina; [3],≤ 80%
same,pest or weed control at 25 ppm,Phakopsora pachyrhizi; [5],≤ 80%
COc1cc(F)ccc1[C@@H](c1ccc(F)cc1)[C@H](C)OC(=O)[C@H](C)NC(=S)c1nccc(OC)c1OC(C)=O [Compound 70],pest or weed control at 121.5 g/ha,Zymoseptoria tritici; [1],> 80%
same,pest or weed control at 121.5 g/ha,Zymoseptoria tritici; [4],> 80%
same,pest or weed control at 121.5 g/ha,Puccinia triticina; [2],> 80%
same,pest or weed control at 121.5 g/ha,Puccinia triticina; [3],> 80%
same,pest or weed control at 25 ppm,Phakopsora pachyrhizi; [5],> 80%
same,pest or weed control at 25 ppm,Phakopsora pachyrhizi; [6],≤ 80%
CCC[C@H](OC(=O)[C@H](C)NC(=S)c1nccc(OC)c1OC(C)=O)[C@@H](C)Oc1ccccc1 [Compound 76],pest or weed control at 25 ppm,Phakopsora pachyrhizi; [5],≤ 80%
